Earlier results as cited in patent US20120078160A1, “METHOD AND APPARATUS FOR CANCER THERAPY” (Gradiant Research, LLC, priority 2009, published 2012).

O=c1[nH]cc(F)c(=O)[nH]1 [5FU, 5-fluorouracil]
pKa: 7.93
Koct, octanol water partition coefficient (pH 7.4): 0.129
